US5153180A, “Fluorinated nucleosides and process for treating retrovirus infections therewith” (priority 1990, dated 1992)
Read-outs that look alike come from different tables or passages of the source.

Columns and labels:
[1] = target: T1, thymidine-phosphorylase from human spleen (Homo sapiens, UniProt P19971); assay: Phosphorolytic cleavage by thymidine-phosphorylase; type: in vitro ADME
T1 construct: thymidine-phosphorylase from human spleen; from tissue; host or cells: human spleen
T1 sequence (P19971 11-482): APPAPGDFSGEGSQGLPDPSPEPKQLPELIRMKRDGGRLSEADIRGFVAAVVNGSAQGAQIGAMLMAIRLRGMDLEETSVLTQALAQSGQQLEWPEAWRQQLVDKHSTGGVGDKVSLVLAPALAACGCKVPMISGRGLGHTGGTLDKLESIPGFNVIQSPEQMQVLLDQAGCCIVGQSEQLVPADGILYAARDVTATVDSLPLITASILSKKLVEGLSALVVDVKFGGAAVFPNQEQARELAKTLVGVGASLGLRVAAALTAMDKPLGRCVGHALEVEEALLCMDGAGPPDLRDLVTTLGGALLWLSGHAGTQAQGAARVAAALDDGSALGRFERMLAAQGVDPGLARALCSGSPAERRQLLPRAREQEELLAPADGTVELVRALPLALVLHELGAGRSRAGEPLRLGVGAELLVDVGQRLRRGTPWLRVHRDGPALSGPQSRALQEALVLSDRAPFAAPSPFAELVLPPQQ
Source text: Therefore FTdR, FddBrUrd and FddFUrd were investigated for their ability to be cleaved by thymidine-phosphorylase from human spleen.

[2] = system: REH acute lymphatic leukemia; assay: Inhibition of proliferation of REH cells; type: cell-based; settings: Homo sapiens
Source text: (§1) Originally FTdR was developed as a cytostatic agent (P. Langen et al., Acta biol. med. Germ. 23, 759, 1969; and U.S. Pat. No. 3,775,397) and, therefore, its cytostatic efficacy has been examined in extensive prior studies. […] Ehrlich-mouse-ascites-carcinoma cells (EMAC) represents an exception to that finding, and this is probably connected to its high capability of phosphorylation of FTdR, which is 10 times higher than in human cells. The fast reversibility of the cytostatic effects on EMAC cells was regarded as a special property of this compound (P. Langen et al., Europ. J. Cancer. 14. 349, 1978). The antiproliferative effect of FTdR and FddUrd, and in comparison thereto of N3 -TdR were tested on human cell lines with regard to a possible use in humans. […] When FTdR is compared to N3 -TdR. The effects are very similar, however somewhat lower in each case for N3 -TdR than for FTdR.
(§2) CD50 : inhibitory dose required to reduce the cell number by 50%

[3] = Toxicity of continuous oral FTdR in mice
Protocol: (§3) Therefore we examined the toxicity and antiretroviral activity of FTdR in mice infected with Rauscher murine leukemia virus. Different doses of FTdR were applied to BalB/c Han strain of mice in plain water for 20 days beginning 2-8 hours after RLV infection.

HIV = assay: Inhibition of the cytopathic effect of HIV on MT-4 cells; type: cell-based; settings: for EC50: Human immunodeficiency virus 1, MT4, 144 h
Protocol: (§4) Under in vitro conditions immortalized T-lymphocytes can be killed within few days by the cytopathic effect of HIV. […] For this purpose about 20,000 MT-4 cells (Harada et al. Science 229, 563 (1985)) Were infected with HIV (titer: 0.04 m.o.i.) and incubated in the presence or absence of varying concentrations of compounds according to formula I, with 10% fetal calf serum (FCS) in 200 μl RPMI medium. After 6 days of incubation the viable cells were counted that were excluded from trypan blue staining.

MT4 = assay: Intracellular phosphorylation of 3H-FTdR in MT4 cells; type: in vitro ADME; settings: 1/um 3H-FTdR, within 24 hours, Human MT4
Protocol: (§5) The critical factor for 3'-fluoro-substituted deoxynucleosides to reach a high intracellular efficiency is their ability to be phosphorylated in situ in the infected cells. […] By comparison, the phosphorylation of 50 μm N3 -TdR by HTLV-IIIB -infected H9 cells to the triphosphate during a 24-hour incubation has been reported to reach only 0.9 pmoles/10^6 cells and to be accompanied by an extreme accumulation of the monophosphate of N3 -TdR (460 pmoles/10^6 cells), reflecting a strong inhibition of the dTMP-kinase (Furman et al., Proc. Natl. Acad. Sci. U.S.A. 83 8333 (1986)) and entailing considerable alterations of the deoxynucleoside triphosphate substrate pools (Furman et al., loc. cit.) which affect cellular DNA synthesis.
(§6) Synthesis of nucleotides from 1/um^3 H-FTdR (tritium labeled)
(§7) in cells of various species within 24 hours.

CEM (LAV-II) = assay: Intracellular phosphorylation of 3H-FTdR in CEM (LAV-II) cells; type: in vitro ADME; settings: 1/um 3H-FTdR, within 24 hours, Human CEM (LAV-II)
Protocol: as §5, §6, §7

[4] = system: Rauscher murine leukemia virus (RLV); assay: Antiretroviral activity in mice infected with Rauscher murine leukemia virus; type: in vivo; settings: for Reverse transcriptas serum / mean spleen weight: RLV +; for Reverse transcriptas serum: 100% = 66000 dpm, treatment discontinued 12 hours before
Protocol: as §3

[5] = system: K-562 acute myeloic leukemia; assay: Inhibition of proliferation of K-562 cells; type: cell-based; settings: Homo sapiens
Source text: as §1, §2

[6] = system: Ehrlich-mouse-ascites-carcinoma cells (EMAC); settings: cited from earlier work
[7] = system: K-37 immortalized T-cells; assay: Inhibition of proliferation of K-37 cells; type: cell-based; settings: Homo sapiens, T-cell
Source text: as §1, §2

[8] = system: 9 different animal tumors; settings: NCI program; cited from earlier work
H9 immortalized T-cells = assay: Inhibition of proliferation of H9 cells; type: cell-based; settings: Homo sapiens, T-cell
Source text: as §1, §2

3T3 = assay: Intracellular phosphorylation of 3H-FTdR in 3T3 cells; type: in vitro ADME; settings: 1/um 3H-FTdR, within 24 hours, Mouse 3T3
Protocol: as §5, §6, §7

NRK-49F = assay: Intracellular phosphorylation of 3H-FTdR in NRK-49F cells; type: in vitro ADME; settings: 1/um 3H-FTdR, within 24 hours, Rat NRK-49F
Protocol: as §5, §6, §7

H9 (HTLV-IIIB) = assay: Intracellular phosphorylation of 3H-FTdR in H9 (HTLV-IIIB) cells; type: in vitro ADME; settings: 1/um 3H-FTdR, within 24 hours, Human H9 (HTLV-IIIB)
Protocol: as §5, §6, §7

in vitro = settings: human, mt-4 cells
Protocol: as §4

[9] = AIDS patients treated; cited from earlier work
[10] = system: HTLV-IIIB -infected H9 cells; settings: 50 μm N3 -TdR, 24-hour incubation; cited from earlier work
[11] = 6.5 mg/kg/day in drinking water for 20 days, RLV +
[12] = 6.5 mg/kg/day in drinking water for 20 days, RLV -
[13] = 69.0 mg/kg/day in drinking water for 20 days, RLV +
[14] = 69.0 mg/kg/day in drinking water for 20 days, RLV -
[15] = oral 1.8 mg/kg/day, given for 24 days

For `Cc1cn([C@H]2C[C@H](F)[C@@H](CO)O2)c(=O)[nH]c1=O` [FTdR, 2',3'-dideoxy-3'-fluorothymidine], the metabolised at 3 h, 1000 µM [1] was 3 to 8%, the IC50 ([2]; dose required to reduce the cell number by 50%, read-out: CD50 (the source's name)) was 160 µM and the “signs of anemia and depression of white cell counts” value ([3]; 6.5 mg/kg/day) was “failed to produce signs of anemia and depression of white cell counts”. The Hemoglobin [3, 11] was 8.1 mmol/L, the “changes of body weight” value [3, 11] was 0% and the Hemoglobin [3, 12] was 8.9 mmol/L. For the same compound, the “changes of body weight” value [3, 12] was “+1%”, the mean spleen weight [3, 12] was 125 mg and the “toxic side effects (hematological parameters)” value ([3]; 69.0 mg/kg/day) was “toxic side effects are associated with this concentration range”. For the same compound, the Hemoglobin [3, 13] was 5.1 mmol/L, the “changes of body weight” value [3, 13] was -10% and the Hemoglobin [3, 14] was 4.3 mmol/L. The “changes of body weight” value [3, 14] was -12%, the mean spleen weight [3, 14] was 72 mg and the EC50 (HIV; read-out: ED50 (the source's name)) was 3 nM. The “antiviral activity of FTdR against N3 -TdR” value (HIV; cellular test, ratio of ED50) was 5 times, the “diphosphate (FdTDP)” value (MT4) was 1.6 pmoles/106 cells and the “monophosphate (FdTMP)” value (MT4) was 9.9 pmoles/106 cells. The “triphosphate (FdTTP)” value (MT4) was 5.6 pmoles/106 cells, the “diphosphate (FdTDP)” value (CEM (LAV-II)) was 0.5 pmoles/106 cells and the “monophosphate (FdTMP)” value (CEM (LAV-II)) was 6.1 pmoles/106 cells. The “triphosphate (FdTTP)” value (CEM (LAV-II)) was 2.8 pmoles/106 cells, the “suppression of splenomegaly and viremia” value ([4]; 6.5 mg/kg/day) was “completely active in suppressing splenomegaly and viremia” and the Reverse transcriptas serum ([4]; 6.5 mg/kg/day for 20 days) was 0%. For the same compound, the mean spleen weight ([4]; 6.5 mg/kg/day in drinking water for 20 days) was 192 mg, the “splenomegaly and RLV-associated reverse transcriptase activity in the serum” value ([4]; 69.0 mg/kg/day) was “completely suppresses” and the Reverse transcriptas serum ([4]; 69.0 mg/kg/day for 20 days) was 0%. For the same compound, the mean spleen weight ([4]; 69.0 mg/kg/day in drinking water for 20 days) was 86 mg, the “development of RLV induced leukemia” value ([4]; 69.0 mg/kg/day, continuous application for 20 days) was “able to prevent the development of a leukemia” and the “suppression of serum reverse transcriptase activity” value [4, 15] was “more than 70%”. For the same compound, the suppression of splenomegaly [4, 15] was “more than 50%”, the IC50 ([5]; K562, dose required to reduce the cell number by 50%, K-562, read-out: CD50 (the source's name)) was 45 µM and the “capability of phosphorylation of FTdR in EMAC versus human cells” value [6] was 10 times. The IC50 ([7]; dose required to reduce the cell number by 50%, K-37, read-out: CD50 (the source's name)) was 260 µM, the cytostatic effect [8] was “only a weak cytostatic effect” and the IC50 (H9 immortalized T-cells; dose required to reduce the cell number by 50%, H9, read-out: CD50 (the source's name)) was 1000 µM. For the same compound, the “diphosphate (FdTDP)” value (3T3) was 2.2 pmoles/106 cells, the “monophosphate (FdTMP)” value (3T3) was 0.38 pmoles/106 cells and the “triphosphate (FdTTP)” value (3T3) was 16.3 pmoles/106 cells. The “diphosphate (FdTDP)” value (NRK-49F) was 3.7 pmoles/106 cells, the “monophosphate (FdTMP)” value (NRK-49F) was 3.5 pmoles/106 cells and the “triphosphate (FdTTP)” value (NRK-49F) was 13.2 pmoles/106 cells. For the same compound, the “diphosphate (FdTDP)” value (H9 (HTLV-IIIB)) was 0.3 pmoles/106 cells, the “monophosphate (FdTMP)” value (H9 (HTLV-IIIB)) was 3.3 pmoles/106 cells and the “triphosphate (FdTTP)” value (H9 (HTLV-IIIB)) was 1.4 pmoles/106 cells. For the same compound, the CC50 at 144 h (in vitro) was 1100 nM.
In the case of `Cc1cn([C@H]2C[C@H](N=[N+]=[N-])[C@@H](CO)O2)c(=O)[nH]c1=O` [N3 -TdR, 3'-azido-2',3'-dideoxythymidine, reference compound], the IC50 ([2]; read-out: CD50) is given as 220 µM, the “patients requiring blood transfusions (toxic side effects on the bone marrow)” value [9] is given as “about 50%” and the EC50 (HIV; read-out: ED50) is given as 16 nM. The IC50 ([5]; K562, read-out: CD50) was 50 µM, the IC50 ([7]; read-out: CD50) was 500 µM and the IC50 (H9 immortalized T-cells; read-out: CD50) was 800 µM. For the same compound, the “accumulation of the monophosphate” value [10] was 460 pmoles/10^6 cells and the “phosphorylation to the triphosphate” value [10] was 0.9 pmoles/10^6 cells.
